Where a SMILES comes first, the peptide text is derived from it. [ ]: non-standard residue; d: D form. ξ: configuration not given here. Ile(3ξ) = CCC(C)[C@H](N)C(=O)O
Biological target: T1, Pituitary adenylate cyclase-activating polypeptide (Rattus norvegicus, UniProt P13589)
T1 sequence (P13589 whole entry): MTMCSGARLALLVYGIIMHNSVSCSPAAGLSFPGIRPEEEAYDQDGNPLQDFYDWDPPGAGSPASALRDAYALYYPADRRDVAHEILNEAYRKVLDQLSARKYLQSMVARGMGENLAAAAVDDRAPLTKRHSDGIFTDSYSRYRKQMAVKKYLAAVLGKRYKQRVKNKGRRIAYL

Ki [nM]	Structure (SMILES)
3	CNC(=O)[C@H](Cc1ccc(O)cc1)NC(=O)[C@H](CCCN=C(N)N)NC(=O)[C@H](CCCCN)NC(=O)CNC(=O)[C@H](CC(C)C)NC(=O)[C@@H](NC(=O)[C@H](C)NC(=O)[C@H](C)NC(=O)[C@H](CC(C)C)NC(=O)[C@H](Cc1ccc(O)cc1)NC(=O)[C@H](CCCCN)NC(=O)[C@H](CCCCN)NC(=O)[C@@H](NC(=O)[C@H](C)NC(=O)[C@H](CCSC)NC(=O)[C@H](CCC(N)=O)NC(=O)[C@H](CCCCN)NC(=O)[C@H](CCCN=C(N)N)NC(=O)[C@H](Cc1ccc(O)cc1)NC(=O)[C@H](CCCN=C(N)N)NC(=O)[C@H](CO)NC(=O)[C@H](Cc1ccc(O)cc1)NC(=O)[C@H](CO)NC(=O)[C@H](CC(=O)O)NC(=O)[C@@H](NC(=O)[C@@H](N)Cc1ccccc1)[C@@H](C)O)C(C)C)C(C)C [PACAP(6-31)] (H-FTDSYSRYRKQMAVKKYLAAVLGKRY-NHMe)
0.3	CC[C@H](C)[C@H](NC(=O)CNC(=O)[C@H](CC(=O)O)NC(=O)[C@H](CO)NC(=O)[C@@H](N)Cc1cnc[nH]1)C(=O)N[C@@H](Cc1ccccc1)C(=O)N[C@H](C(=O)N[C@@H](CC(=O)O)C(=O)N[C@@H](CO)C(=O)N[C@@H](Cc1ccc(O)cc1)C(=O)N[C@@H](CO)C(=O)N[C@@H](CCCNC(=N)N)C(=O)N[C@@H](Cc1ccc(O)cc1)C(=O)N[C@@H](CCCNC(=N)N)C(=O)N[C@@H](CCCCN)C(=O)N[C@@H](CCC(N)=O)C(=O)N[C@@H](CCSC)C(=O)N[C@@H](C)C(=O)N[C@H](C(=O)N[C@@H](CCCCN)C(=O)N[C@@H](CCCCN)C(=O)N[C@@H](Cc1ccc(O)cc1)C(=O)N[C@@H](CC(C)C)C(=O)N[C@@H](C)C(=O)N[C@@H](C)C(=O)N[C@H](C(=O)N[C@@H](CC(C)C)C(=O)NCC(=O)N[C@@H](CCCCN)C(=O)N[C@@H](CCCNC(=N)N)C(=O)N[C@@H](Cc1ccc(O)cc1)C(=O)N[C@@H](CCCCN)C(=O)N[C@@H](CCC(N)=O)C(=O)N[C@@H](CCCNC(=N)N)C(=O)N[C@H](C(=O)N[C@@H](CCCCN)C(=O)N[C@@H](CC(N)=O)C(=O)N[C@@H](CCCCN)C(N)=O)C(C)C)C(C)C)C(C)C)[C@@H](C)O [PACAP]
1	CC[C@H](C)[C@H](NC(=O)CNC(=O)[C@H](CC(=O)O)NC(=O)[C@H](CO)NC(=O)[C@H](Cc1cnc[nH]1)NC(C)=O)C(=O)N[C@@H](Cc1ccccc1)C(=O)N[C@H](C(=O)N[C@@H](CC(=O)O)C(=O)N[C@@H](CO)C(=O)N[C@@H](Cc1ccc(O)cc1)C(=O)N[C@@H](CO)C(=O)N[C@@H](CCCNC(=N)N)C(=O)N[C@@H](Cc1ccc(O)cc1)C(=O)N[C@@H](CCCNC(=N)N)C(=O)N[C@@H](CCCCN)C(=O)N[C@@H](CCC(N)=O)C(=O)N[C@@H](CCSC)C(=O)N[C@@H](C)C(=O)N[C@H](C(=O)N[C@@H](CCCCN)C(=O)N[C@@H](CCCCN)C(=O)N[C@@H](Cc1ccc(O)cc1)C(=O)N[C@@H](CC(C)C)C(=O)N[C@@H](C)C(=O)N[C@@H](C)C(=O)N[C@H](C(=O)N[C@@H](CC(C)C)C(N)=O)C(C)C)C(C)C)[C@@H](C)O [[AcHis1]PACAP(1-27)]
0.3	CC[C@H](C)[C@H](NC(=O)CNC(=O)[C@H](CC(=O)O)NC(=O)[C@H](C)NC(=O)[C@@H](N)Cc1cnc[nH]1)C(=O)N[C@@H](Cc1ccccc1)C(=O)N[C@H](C(=O)N[C@@H](CC(=O)O)C(=O)N[C@@H](CO)C(=O)N[C@@H](Cc1ccc(O)cc1)C(=O)N[C@@H](CO)C(=O)N[C@@H](CCCNC(=N)N)C(=O)N[C@@H](Cc1ccc(O)cc1)C(=O)N[C@@H](CCCNC(=N)N)C(=O)N[C@@H](CCCCN)C(=O)N[C@@H](CCC(N)=O)C(=O)N[C@@H](CCSC)C(=O)N[C@@H](C)C(=O)N[C@H](C(=O)N[C@@H](CCCCN)C(=O)N[C@@H](CCCCN)C(=O)N[C@@H](Cc1ccc(O)cc1)C(=O)N[C@@H](CC(C)C)C(=O)N[C@@H](C)C(=O)N[C@@H](C)C(=O)N[C@H](C(=O)N[C@@H](CC(C)C)C(N)=O)C(C)C)C(C)C)[C@@H](C)O [[Ala2]PACAP(1-27)]
1000	CC[C@H](C)[C@H](NC(=O)CNC(=O)[C@H](CC(=O)O)NC(=O)[C@H](CCCN=C(N)N)NC(=O)[C@@H](N)Cc1cnc[nH]1)C(=O)N[C@@H](Cc1ccccc1)C(=O)N[C@H](C(=O)N[C@@H](CC(=O)O)C(=O)N[C@@H](CO)C(=O)N[C@@H](Cc1ccc(O)cc1)C(=O)N[C@@H](CO)C(=O)N[C@@H](CCCN=C(N)N)C(=O)N[C@@H](Cc1ccc(O)cc1)C(=O)N[C@@H](CCCN=C(N)N)C(=O)N[C@@H](CCCCN)C(=O)N[C@@H](CCC(N)=O)C(=O)N[C@@H](CCSC)C(=O)N[C@@H](C)C(=O)N[C@H](C(=O)N[C@@H](CCCCN)C(=O)N[C@@H](CCCCN)C(=O)N[C@@H](Cc1ccc(O)cc1)C(=O)N[C@@H](CC(C)C)C(=O)N[C@@H](C)C(=O)N[C@@H](C)C(=O)N[C@H](C(=O)N[C@@H](CC(C)C)C(N)=O)C(C)C)C(C)C)[C@@H](C)O [[Arg2]PACAP(1-27)]
10	CC[C@H](C)[C@H](NC(=O)CNC(=O)[C@H](CC(=O)O)NC(=O)[C@H](CCCN=C(N)N)NC(=O)[C@@H](N)Cc1cnc[nH]1)C(=O)N[C@@H](Cc1ccccc1)C(=O)N[C@H](C(=O)N[C@@H](CC(=O)O)C(=O)N[C@@H](CO)C(=O)N[C@@H](Cc1ccc(O)cc1)C(=O)N[C@@H](CO)C(=O)N[C@@H](CCCN=C(N)N)C(=O)N[C@@H](Cc1ccc(O)cc1)C(=O)N[C@@H](CCCN=C(N)N)C(=O)N[C@@H](CCCCN)C(=O)N[C@@H](CCC(N)=O)C(=O)N[C@@H](CCSC)C(=O)N[C@@H](C)C(=O)N[C@H](C(=O)N[C@@H](CCCCN)C(=O)N[C@@H](CCCCN)C(=O)N[C@@H](Cc1ccc(O)cc1)C(=O)N[C@@H](CC(C)C)C(=O)N[C@@H](C)C(=O)N[C@@H](C)C(=O)N[C@H](C(=O)N[C@@H](CC(C)C)C(=O)NCC(=O)N[C@@H](CCCCN)C(=O)N[C@@H](CCCN=C(N)N)C(=O)N[C@@H](Cc1ccc(O)cc1)C(=O)N[C@@H](CCCCN)C(=O)N[C@@H](CCC(N)=O)C(=O)N[C@@H](CCCN=C(N)N)C(=O)N[C@H](C(=O)N[C@@H](CCCCN)C(=O)N[C@@H](CC(N)=O)C(=O)N[C@@H](CCCCN)C(N)=O)C(C)C)C(C)C)C(C)C)[C@@H](C)O [[Arg2]PACAP(1-38)]
4000	CC[C@H](C)[C@H](NC(=O)CNC(=O)[C@H](CC(N)=O)NC(=O)[C@H](CO)NC(=O)[C@@H](N)Cc1cnc[nH]1)C(=O)N[C@@H](Cc1ccccc1)C(=O)N[C@H](C(=O)N[C@@H](CC(=O)O)C(=O)N[C@@H](CO)C(=O)N[C@@H](Cc1ccc(O)cc1)C(=O)N[C@@H](CO)C(=O)N[C@@H](CCCNC(=N)N)C(=O)N[C@@H](Cc1ccc(O)cc1)C(=O)N[C@@H](CCCNC(=N)N)C(=O)N[C@@H](CCCCN)C(=O)N[C@@H](CCC(N)=O)C(=O)N[C@@H](CCSC)C(=O)N[C@@H](C)C(=O)N[C@H](C(=O)N[C@@H](CCCCN)C(=O)N[C@@H](CCCCN)C(=O)N[C@@H](Cc1ccc(O)cc1)C(=O)N[C@@H](CC(C)C)C(=O)N[C@@H](C)C(=O)N[C@@H](C)C(=O)N[C@H](C(=O)N[C@@H](CC(C)C)C(N)=O)C(C)C)C(C)C)[C@@H](C)O [[Asn3]PACAP(1-27)]
800	CCC(C)[C@H](NC(=O)CNC(=O)[C@H](CC(=O)O)NC(=O)[C@@H](Cc1ccccc1)NC(=O)[C@@H](N)Cc1cnc[nH]1)C(=O)N[C@@H](Cc1ccccc1)C(=O)N[C@H](C(=O)N[C@@H](CC(=O)O)C(=O)N[C@@H](CO)C(=O)N[C@@H](Cc1ccc(O)cc1)C(=O)N[C@@H](CO)C(=O)N[C@@H](CCCN=C(N)N)C(=O)N[C@@H](Cc1ccc(O)cc1)C(=O)N[C@@H](CCCN=C(N)N)C(=O)N[C@@H](CCCCN)C(=O)N[C@@H](CCC(N)=O)C(=O)N[C@@H](CCSC)C(=O)N[C@@H](C)C(=O)N[C@H](C(=O)N[C@@H](CCCCN)C(=O)N[C@@H](CCCCN)C(=O)N[C@@H](Cc1ccc(O)cc1)C(=O)N[C@@H](CC(C)C)C(=O)N[C@@H](C)C(=O)N[C@@H](C)C(=O)N[C@H](C(=O)N[C@@H](CC(C)C)C(N)=O)C(C)C)C(C)C)[C@@H](C)O (stereo partly drawn) [[D-Phe2]PACAP-27]
8	CCC(C)[C@H](NC(=O)CNC(=O)[C@H](CC(=O)O)NC(=O)[C@@H](Cc1ccccc1)NC(=O)[C@@H](N)Cc1cnc[nH]1)C(=O)N[C@@H](Cc1ccccc1)C(=O)N[C@H](C(=O)N[C@@H](CC(=O)O)C(=O)N[C@@H](CO)C(=O)N[C@@H](Cc1ccc(O)cc1)C(=O)N[C@@H](CO)C(=O)N[C@@H](CCCN=C(N)N)C(=O)N[C@@H](Cc1ccc(O)cc1)C(=O)N[C@@H](CCCN=C(N)N)C(=O)N[C@@H](CCCCN)C(=O)N[C@@H](CCC(N)=O)C(=O)N[C@@H](CCSC)C(=O)N[C@@H](C)C(=O)N[C@H](C(=O)N[C@@H](CCCCN)C(=O)N[C@@H](CCCCN)C(=O)N[C@@H](Cc1ccc(O)cc1)C(=O)N[C@@H](CC(C)C)C(=O)N[C@@H](C)C(=O)N[C@@H](C)C(=O)N[C@H](C(=O)N[C@@H](CC(C)C)C(=O)NCC(=O)N[C@@H](CCCCN)C(=O)N[C@@H](CCCN=C(N)N)C(=O)N[C@@H](Cc1ccc(O)cc1)C(=O)N[C@@H](CCCCN)C(=O)N[C@@H](CCC(N)=O)C(=O)N[C@@H](CCCN=C(N)N)C(=O)N[C@H](C(=O)N[C@@H](CCCCN)C(=O)N[C@@H](CC(N)=O)C(=O)N[C@@H](CCCCN)C(N)=O)C(C)C)C(C)C)C(C)C)[C@@H](C)O (stereo partly drawn) [[D-Phe2]PACAP-38] (H-H[dF]DG[Ile(3ξ)]FTDSYSRYRKQMAVKKYLAAVLGKRYKQRVKNK-NH2)
8	CC[C@H](C)[C@H](NC(=O)CNC(=O)[C@H](CC(=O)O)NC(=O)[C@@H](C)NC(=O)[C@@H](N)Cc1cnc[nH]1)C(=O)N[C@@H](Cc1ccccc1)C(=O)N[C@H](C(=O)N[C@@H](CC(=O)O)C(=O)N[C@@H](CO)C(=O)N[C@@H](Cc1ccc(O)cc1)C(=O)N[C@@H](CO)C(=O)N[C@@H](CCCN=C(N)N)C(=O)N[C@@H](Cc1ccc(O)cc1)C(=O)N[C@@H](CCCN=C(N)N)C(=O)N[C@@H](CCCCN)C(=O)N[C@@H](CCC(N)=O)C(=O)N[C@@H](CCSC)C(=O)N[C@@H](C)C(=O)N[C@H](C(=O)N[C@@H](CCCCN)C(=O)N[C@@H](CCCCN)C(=O)N[C@@H](Cc1ccc(O)cc1)C(=O)N[C@@H](CC(C)C)C(=O)N[C@@H](C)C(=O)N[C@@H](C)C(=O)N[C@H](C(=O)N[C@@H](CC(C)C)C(N)=O)C(C)C)C(C)C)[C@@H](C)O [[DAla2]PACAP(1-27)]

Reference: BindingDB's records for doi:10.1016/s0028-3908(05)80009-7 (Universit&Eacute, 1994)
